{"source": "patent US9695155B2", "about": "“Herbicidal substituted pyrimidinyloxy benzene compounds” (E. I. DU PONT DE NEMOURS AND COMPANY, priority 2013, dated 2017)", "key": {"chickweed": {"test_system": "chickweed", "assay": "Test D preemergence", "format": "in vivo, Stellaria media", "conditions": "Stellaria media, pre-emergence, scale 0-100, read-out: Plant response rating, Chickweed", "from_the_text": "(§1) Seeds of plant species selected from bluegrass (annual bluegrass, Poa annua), blackgrass (Alopecurus myosuroides), canarygrass (littleseed canarygrass, Phalaris minor), chickweed (common chickweed, Stellaria media), galium (catchweed bedstraw, Galium aparine), bromegrass, downy (downy bromegrass, Bromus tectorum), field poppy (Papaver rhoeas), field violet (Viola arvensis), green foxtail (Setaria viridis), deadnettle (henbit deadnettle, Lamium amplexicaule), Italian ryegrass (Lolium multiflorum), kochia (Kochia scoparia), lambsquarters (Chenopodium album), oilseed rape (Brassica napus), pigweed (Amaranthus retroflexus), chamomile (scentless chamomile, Matricaria inodora), Russian thistle (Salsola kali), speedwell (bird's-eye speedwell, Veronica persica), spring barley (Hordeum vulgare), spring wheat (Triticum aestivum), wild buckwheat (Polygonum convolvulus), wild mustard (Sinapis arvensis), wild oat (Avena fatua), wild radish (Raphanus raphanistrum), windgrass (Apera spica-venti), winter barley (Hordeum vulgare), and winter wheat (Triticum aestivum) were planted into a silt loam soil and treated preemergence with test chemicals formulated in a non-phytotoxic solvent mixture which included a surfactant.\n(§2) At the same time, these species were planted in pots containing Redi-Earth® planting medium (Scotts Company, 14111 Scottslawn Road, Marysville, Ohio 43041) comprising spaghnum peat moss, vermiculite, wetting agent and starter nutrients and treated with postemergence applications of the test chemicals formulated in the same manner. Plants ranged in height from 2 to 18 cm (1- to 4-leaf stage). Treated plants and controls were maintained in a controlled growth environment for 7 to 21 days after which time all species were compared to controls and visually evaluated. Plant response ratings, summarized in Table D, are based on a scale of 0 to 100 where 0 is no effect and 100 is complete control. A dash (-) response means no test result."}, "field violet": {"test_system": "field violet", "assay": "Test D preemergence", "format": "in vivo, Viola arvensis", "conditions": "Viola arvensis, pre-emergence, scale 0-100, read-out: Plant response rating, Field Violet", "from_the_text": "as §1, §2"}, "spring wheat": {"test_system": "spring wheat", "assay": "Test D preemergence", "format": "in vivo, Triticum aestivum", "conditions": "Triticum aestivum, pre-emergence", "from_the_text": "as §1, §2"}, "winter wheat": {"test_system": "winter wheat", "assay": "Test D preemergence", "format": "in vivo, Triticum aestivum", "conditions": "Triticum aestivum, pre-emergence", "from_the_text": "as §1, §2"}, "cocklebur": {"test_system": "cocklebur", "assay": "Test E preemergence", "format": "in vivo, Xanthium strumarium", "conditions": "for Cocklebur plant response rating: scale 0 to 100 (0 no effect, 100 complete control); for Plant response rating, Cocklebur: scale 0 to 100, 0 no effect, 100 complete control", "from_the_text": "(§3) Seeds of plant species selected from corn (Zea mays), soybean (Glycine max), velvetleaf (Abutilon theophrasti), lambsquarters (Chenopodium album), wild poinsettia (Euphorbia heterophylla), palmer pigweed (Amaranthus palmeri), waterhemp (common waterhemp, Amaranthus rudis), surinam grass (Brachiaria decumbens), large (Lg) crabgrass (Digitaria sanguinalis), Brazilian crabgrass (Digitaria horizontalis), fall panicum (Panicum dichotomiflorum), giant foxtail (Setaria faberii), green foxtail (Setaria viridis), goosegrass (Eleusine indica), johnsongrass (Sorghum halepense), ragweed (common ragweed, Ambrosia elatior), barnyardgrass (Echinochloa crus-galli), sandbur (southern sandbur, Cenchrus echinatus), arrowleaf sida (Sida rhombifolia), Italian ryegrass (Lolium multiflorum), dayflower (Virginia (VA) dayflower, Commelina virginica), field bindweed (Convolvulus arvensis), morningglory (Ipomoea coccinea), nightshade (eastern black nightshade, Solanum ptycanthum), kochia (Kochia scoparia), yellow nutsedge (Cyperus esculentus), cocklebur (common cocklebur, Xanthium strumarium), smartweed (ladysthumb smartweed, and hairy beggarticks (Bidens pilosa), were planted into a silt loam soil and treated preemergence with test chemicals formulated in a non-phytotoxic solvent mixture which included a surfactant.\n(§4) At the same time, plants from these crop and weed species and also horseweed (Canada horseweed, Conyza canadensis), waterhemp_RES1, (ALS & Triazine resistant common waterhemp, Amaranthus rudis), and waterhemp_RES2, (ALS & HPPD resistant common waterhemp, Amaranthus rudis) were planted in pots containing Redi-Earth® planting medium (Scotts Company, 14111 Scottslawn Road, Marysville, Ohio 43041) comprising spaghnum peat moss, vermiculite, wetting agent and starter nutrients were treated with postemergence applications of test chemicals formulated in the same manner. Plants ranged in height from 2 to 18 cm for postemergence treatments (1- to 4-leaf stage). Treated plants and controls were maintained in a greenhouse for 14 to 21 days, after which time all species were compared to controls and visually evaluated. Plant response ratings, summarized in Table E, are based on a scale of 0 to 100 where 0 is no effect and 100 is complete control. A dash (-) response means no test result."}, "kochia": {"test_system": "kochia", "assay": "Test E postemergence", "format": "in vivo, Kochia scoparia", "from_the_text": "as §3, §4"}}}
{"smiles": "N#Cc1cccc(Oc2ncc(Cl)cn2)c1-n1cc(Br)cn1", "note": "[Compound 52, 2-(4-bromo-1H-pyrazol-1-yl)-3-[(5-chloro-2-pyrimidinyl)oxy]benzonitrile]", "values": [{"measurement": "pest or weed control at 31 g/ha", "setting": "chickweed; 31 g ai/ha", "value": 100, "unit": "%"}, {"measurement": "pest or weed control at 62 g/ha", "setting": "chickweed; 62 g ai/ha", "value": 100, "unit": "%"}, {"measurement": "pest or weed control at 125 g/ha", "setting": "chickweed; 125 g ai/ha", "value": 100, "unit": "%"}, {"measurement": "pest or weed control at 250 g/ha", "setting": "chickweed; 250 g ai/ha", "value": 100, "unit": "%"}, {"measurement": "pest or weed control at 31 g/ha", "setting": "field violet; 31 g ai/ha", "value": 75, "unit": "%"}, {"measurement": "pest or weed control at 62 g/ha", "setting": "field violet; 62 g ai/ha", "value": 95, "unit": "%"}, {"measurement": "pest or weed control at 125 g/ha", "setting": "field violet; 125 g ai/ha", "value": 100, "unit": "%"}, {"measurement": "pest or weed control at 250 g/ha", "setting": "field violet; 250 g ai/ha", "value": 100, "unit": "%"}, {"measurement": "plant injury at 31 g/ha", "setting": "spring wheat; 31 g ai/ha, scale 0 (no effect) to 100 (complete control), read-out: Plant response rating, Wheat, Spring", "value": 0, "unit": "%"}, {"measurement": "plant injury at 62 g/ha", "setting": "spring wheat; 62 g ai/ha, scale 0-100, read-out: Plant response rating, Wheat, Spring", "value": 0, "unit": "%"}, {"measurement": "plant injury at 125 g/ha", "setting": "spring wheat; 125 g ai/ha, scale 0-100, read-out: Plant response rating, Wheat, Spring", "value": 0, "unit": "%"}, {"measurement": "plant injury at 250 g/ha", "setting": "spring wheat; 250 g ai/ha, scale 0-100, read-out: Plant response rating, Wheat, Spring", "value": 30, "unit": "%"}, {"measurement": "plant injury at 31 g/ha", "setting": "winter wheat; 31 g ai/ha, scale 0 (no effect) to 100 (complete control), read-out: Plant response rating, Wheat, Winter", "value": 0, "unit": "%"}, {"measurement": "plant injury at 62 g/ha", "setting": "winter wheat; 62 g ai/ha, scale 0-100, read-out: Plant response rating, Wheat, Winter", "value": 0, "unit": "%"}, {"measurement": "plant injury at 125 g/ha", "setting": "winter wheat; 125 g ai/ha, scale 0-100, read-out: Plant response rating, Wheat, Winter", "value": 25, "unit": "%"}, {"measurement": "plant injury at 250 g/ha", "setting": "winter wheat; 250 g ai/ha, scale 0-100, read-out: Plant response rating, Wheat, Winter", "value": 35, "unit": "%"}, {"measurement": "Cocklebur plant response rating", "setting": "cocklebur; 16 g ai/ha", "value": 0}, {"measurement": "Cocklebur plant response rating", "setting": "cocklebur; 31 g ai/ha", "value": 0}, {"measurement": "Cocklebur plant response rating", "setting": "cocklebur; 62 g ai/ha", "value": 0}, {"measurement": "Plant response rating, Cocklebur", "setting": "cocklebur; 250 g ai/ha", "value": 25}, {"measurement": "Plant response rating, Kochia", "setting": "kochia; Postemergence, 31 g ai/ha, scale 0 to 100", "value": 50}, {"measurement": "Plant response rating, Kochia", "setting": "kochia; Postemergence, 62 g ai/ha, scale 0 to 100", "value": 55}, {"measurement": "Plant response rating, Kochia", "setting": "kochia; Postemergence, 125 g ai/ha, scale 0 to 100", "value": 80}, {"measurement": "Plant response rating, Kochia", "setting": "kochia; postemergence, 16 g ai/ha, scale 0 to 100, 0 no effect, 100 complete control", "value": 40}]}
{"smiles": "N#Cc1cnn(-c2c(C#N)cccc2Oc2ncc(Cl)cn2)c1", "note": "[Compound 200]", "values": [{"measurement": "Cocklebur plant response rating", "setting": "cocklebur; 16 g ai/ha", "value": 0}, {"measurement": "Cocklebur plant response rating", "setting": "cocklebur; 31 g ai/ha", "value": 0}, {"measurement": "Plant response rating, Cocklebur", "setting": "cocklebur; 125 g ai/ha", "value": 75}, {"measurement": "Plant response rating, Cocklebur", "setting": "cocklebur; 250 g ai/ha", "value": 95}]}
{"smiles": "N#Cc1cccc(Oc2ncc(Cl)cn2)c1-n1cc(Cl)cn1", "note": "[Compound 72]", "values": [{"measurement": "Cocklebur plant response rating", "setting": "cocklebur; 16 g ai/ha", "value": 0}, {"measurement": "Plant response rating, Cocklebur", "setting": "cocklebur; 125 g ai/ha", "value": 0}, {"measurement": "Plant response rating, Cocklebur", "setting": "cocklebur; 250 g ai/ha", "value": 15}]}
